These results are taken from patent US20080096846A1, “Arene Ruthenium (ll) Compounds And Their Use In Cancer Therapy” (priority 2004, published 2008).

The subject of data set [1] is A2780 (human ovarian carcinoma, ECACC 93112519). Put plainly: Cytotoxicity A2780 (2nd method), sulforhodamine B. Type of data set: cell-based. The note with it: 24 h exposure, then 96 h in fresh medium, SRB. How it is done:
A2780 (2nd method) and A549: Cell line A2780 (human ovarian carcinoma, ECACC 93112519) was maintained in medium comprising RPMI-1640 (Sigma) with 5% Fetal Bovine Serum (Invitrogen), 2 mM L-Glutamine (Sigma) and 1% Penicillin/Streptomycin (Invitrogen), in T-75 flasks (Costar). Cells were passaged at approximately 75-90% confluence (1:8 dilution) using 0.25% Trypsin/EDTA (Invitrogen)
(§1) Both cell lines were incubated at 37° C., 5% CO2, in high humidity.
(§2) A2780 carcinoma cells were seeded (150 μL) into 96 well plates (Nunc Maxisorp) at 5000 (±10%) cells per well and incubated at 37° C., 5% CO2 in high humidity for 48 hours. A549 carcinoma cells were seeded (150 μL) into 96 well plates (Nunc Maxisorp) at 2000 (±10%) cells per well and incubated at 37° C., 5% CO2 in high humidity for 24 hours.
(§3) The compounds to be tested were solubilised by sonication in DMSO (Fisher Scientific) to provide 20 mM solutions. Compounds were serially diluted with DMSO before diluting in cell culture medium to give concentrations four-fold greater than the final concentrations required in the assay. The dilutions of compound in culture medium were added to the cell plates (50 μL) in triplicates to achieve final concentrations of 100 μM, 50 μM, 10 μM, 5 μM, 1 μM and 0.1 μM. The final DMSO concentration in each well was 0.5% (v/v). The plates were incubated for 24 hours at 37° C., 5% CO2, in high humidity
After 24 hours incubation, the cells were washed (200 μL) twice with sterile phosphate buffered Saline (Sigma) and the cell culture medium replenished (200 μL). Plates were incubated at 37° C., 5% CO2, in high humidity for 96 hours. After the incubation surviving cells were fixed by the addition of 50% (w/v) Trichloroacetic acid (50 μL) and incubated at 4° C. for 1 hour. Plates were washed three times with excess tap water and air-dried. Cells were dyed by the addition of (100 μL) 0.4% sulforhodamine B (Sigma) solution to the plates followed by five washes (200 μl) with 1% acetic acid solution to remove excess dye before air-drying. Dye was re-solubilised in (200 μL) 10 mM Tris buffer (Fisher Scientific) and the absorbance of each well read at both 565 nm and 690 nm using a BMG Fluorostar microplate reader. The reading at 690 nm was subtracted from the 565 nm reading, and the IC50 values determined by plotting the corrected absorbance value Vs. the compound concentration in the wells (XLfit version 4.0, ID Business Solutions Ltd). These are shown below in table 1

Data set [2] has as its system A2780 cells. As to the kind of experiment: Cytotoxicity A2780 (1st method), cell counting. The note with it: 24 h cell exposure, cells counted on day 7. In kind it is cell-based, human. The procedure: A2780 (1st Method): A2780 cells were plated on day zero, and the complexes to be tested were added on day 3. The complex was removed on day 4 (i.e., 24 h cell exposure), and after growth in fresh medium in the absence of drug, the cells were counted on day 7. The complexes were stored in the dark at 277 K as a precaution against photochemical decomposition.

For data set [3], the system named is A549 (human lung carcinoma, ECACC 86012804). Put plainly: Cytotoxicity A549, sulforhodamine B. Type of data set: cell-based. The note with it: 24 h exposure, then 96 h in fresh medium, SRB. How it is done:
Cell Line A549 (human lung carcinoma, ECACC 86012804) was maintained in medium comprising DMEM (Sigma) with 10% Fetal Bovine Serum (Invitrogen), 2 mM L-Glutamine (Invitrogen) and 1% Penicillin/Streptomycin (Invitrogen), in T-75 flasks (Costar). Cells were passaged at approximately 70-90% confluence (1:8 dilution) using 0.25% Trypsin/EDTA (Invitrogen).
as §1, §2, §3
After 24 hours incubation, the cells were washed (200 μL) twice with sterile phosphate buffered Saline (Sigma) and the cell culture medium replenished (200 μL). Plates were incubated at 37° C., 5% CO2, in high humidity for 96 hours. […] Dye was re-solubilised in (200 μL) 10 mM Tris buffer (Fisher Scientific) and the absorbance of each well read at both 565 nm and 690 nm using a BMG Fluorostar microplate reader. The reading at 690 nm was subtracted from the 565 nm reading, and the IC50 values determined by plotting the corrected absorbance value Vs. the compound concentration in the wells (XLfit version 4.0, ID Business Solutions Ltd). […]

A short description of data set [4]: Hydrolysis kinetic studies by UV-Vis spectroscopy. Type of data set: physicochemical. The note with it: 298 K, methanol stock diluted with water. Further details: key: —: no hydrolysis observed by UV-VIS. The procedure: Ultraviolet and Visible (UV-Vis) Spectroscopy: A Perkin-Elmer Lambda-16 UV-Vis spectrophotometer was used with 1-cm path-length quartz cuvettes (0.5 mL) and a PTP1 Peltier temperature controller. Spectra were processed using UVWinlab software for Windows' 95.
Kinetic Studies: Aliquots of stock solutions of the complexes to be tested (4-10 mM) in methanol were diluted to 500 μL with water, and the absorbance at selected wavelengths (determined by hydrolysis in an 19:1 mixture of water and methanol—see table 1 (λ)) was then recorded at 6 to 20 second intervals depending on the hydrolysis rate of each complex at 298 K. The hydrolysis rate constant kH2O for each complex was determined by computer fit of the absorbance/time data for each complex to the first-order rate equation (eq. 1), A=C0+C1e^−kt (1) where C0 and C1 are computer-fitted constants, and A is the absorbance corresponding to time t, and the results are reported in table 1 as the half life (t1/2). Cytoxicity Studies

One may read the IC50 as the concentration needed to halve the response being measured. For `F[P-](F)(F)(F)(F)F.NCCN.[Cl][Ru+].c1ccc(-c2ccccc2)cc1` [Compound C1, [(η^6-C6H5C6H5)Ru(en)Cl][PF6], reference compound], the results for the concentration for half-maximal inhibition (IC50) in data set [1], in data set [2] and in data set [3] were 6.5 µM, 8 µM and 11 µM, respectively.
`Cc1c(C)c(C)c(C)c(C)c1C.F[P-](F)(F)(F)(F)F.NCCN.[Cl][Ru+]` [Compound C2, [(η^6-C6(CH3)6)Ru(en)Cl][PF6], reference compound] gave a 50% inhibitory concentration (IC50) in data set [2] of 9 µM.
“[(η^6-C6(CH3)6)Ru(en)(3,5-dichloropyridine)][PF6]2 [Compound 6]”: the IC50 came out at 18 µM in data set [1] and 23 µM in data set [2].
“[(η^6-C6(CH3)6)Ru(en)(3-methylpyridine)][PF6]2 [Compound 9]”: the half-inhibitory concentration (IC50) in data set [1] and in data set [2] was 50 µM throughout. For the same compound, in data set [4], the “t1/2 (hydrolysis), dash with footnote a” value is reported as “—^a”.
In turn, “[(η^6-C6(CH3)6)Ru(en)(SCN)][PF6]2 [Compound 3]” displayed a half-maximal inhibitory concentration (IC50) in data set [1] of 24 µM.
In the case of “[(η^6-C6(CH3)6)Ru(en)(SPh)][PF6] [Compound 4]”, the half-inhibitory concentration (IC50) is 23 µM in data set [1], 23 µM in data set [2] and 38 µM in data set [3]. Further, the “t1/2 (hydrolysis), dash with footnote a” value in data set [4] is “—^a”.
The compound “[(η^6-C6(CH3)6)Ru(en)(p-cyanopyridine)][PF6]2 [Compound 8]” returned a half-inhibitory concentration (IC50) in data set [2] of 6 µM.
“[(η^6-C6(CH3)6)Ru(en)(pyridine)][PF6]2 [Compound 2]”: the “t1/2 (hydrolysis), dash with footnote a” value in data set [4] is reported as “—^a”.
For the compound “[(η^6-C6H5C6H5)Ru(en)N3][PF6] [Compound 1]”, the results for the half-inhibitory concentration (IC50) in data set [1], in data set [2] and in data set [3] were 14 µM, 4 µM and 8.5 µM, respectively.
